Where a name gives a salt, the structure may show the parent alone. Read-outs that look alike come from different tables or passages of the source.
Legend:
[1] = tested on: SOX17 (endoderm marker) in RUES2-GLR cells; test: DevTox GLR-Endo assay: decrease in percent SOX17-positive cells (AEID 3094, Sox17_dn); conditions: for Emax / AC50: Homo sapiens; for Hit Call: Table S2, SOX17-positive cells, cutoff 3*bmad; for DevTox ACC: Table S2, percent SOX17-positive cells; for DevTox ACC / DevTox-GLR Endo ACC: 48 h exposure; for DevTox-GLR Endo ACC: activity concentration at cutoff, SOX17-positive cells; for HIT−CALL: tcpl plot AEID3094, COFF 20.3; for hit call designation (in words): DevTox GLR-Endo prediction against developmental toxicant classification
Procedure, shortened: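 Readouts are loss of SOX17-positive fraction and reduced cell number in endoderm-differentiating RUES2-GLR cells after 48 h of chemical exposure. Controls: undifferentiated and differentiated cells, 0.2% DMSO, and 1 µM SB431542; at least four biological replicates.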

RUES2-GLR cells = test: DevTox GLR-Endo assay: decrease in total cell count, cytotoxicity (AEID 3098, CellCount_dn); conditions: for Emax: Homo sapiens, read-out: Cell Count % Max Inhibition
[2] = tested on: SOX17 (endoderm marker) in RUES2-GLR cells; test: DevTox GLR-Endo assay: increase in percent SOX17-positive cells (AEID 3093, Sox17_up); type: cell-based, human; conditions: for Emax: Homo sapiens; for HIT−CALL: tcpl plot AEID3093, COFF 20.3
Description: (§1) The total test chemical incubation period was 48 h.
(§2) (Supplementary Materials).

[3] = tested on: o/c ratio in H9 embryonic stem cells; conditions: Teratogen Index, o/c ratio; cited from earlier work
[4] = tested on: SOX2 (ectoderm and pluripotency marker) in RUES2-GLR cells; test: DevTox GLR-Endo assay: increase in percent SOX2-positive cells (AEID 3095, Sox2_up); conditions: for AC50 / Emax: Homo sapiens; for AC50: read-out: ga (winning model); for Emax: read-out: tp (winning model); for MAX_MEAN: tcpl plot AEID3095, maximum mean response; for MAX_MED: tcpl plot AEID3095, maximum median response;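 as to all read-outs here: cells exposed to test chemicals for 48 h in total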
Description: RUES2-GLR cells were seeded 24 h prior to differentiation initiation into vitronectin-coated 384-well CellCarrier Ultra plates (10.6 mm^2/well) (Perkin Elmer, Waltham, MA, USA). Vitronectin (0.5 µg/cm^2)-coated plates were prepared and stored at 4 °C, wrapped in parafilm, for less than seven days and incubated at room temperature for one hour prior to cell seeding. […] Cells were dispensed into 20 µL coating solution using a Certus FLEX Micro Dispenser (Fritz Gyger, Gwatt, Switzerland) with a 0.45 µm valve to a final volume of 100 µL and density of 2.8 × 10^3 cells per well.
Following a 24 h post-seeding incubation period (Time = 0 h) (Figure 3A), directed endoderm differentiation was initiated with the PSC Definitive Endoderm Induction kit (Gibco, Waltham, MA, USA). […] A target dilution series (0.002–200 µM) was generated by dispensing variable nanoliter volumes of test chemical and backfilling with a complementary volume of DMSO using Echo Cherry Pick software (v.1.6.2). Wells were backfilled with 50 µL of induction medium using a Certus FLEX Micro Dispenser with 0.45 µm valves. Test compound treatment plates were mixed on a Multi-Microplate Genie mixer at 700 rpm for 10 min and subsequently incubated for two hours in a humidified atmosphere at 37 °C with 5% CO2. Each chemical treatment (0 h–Medium A; 24 h–Medium B) were prepared the day of treatment. At 0 h, cell culture medium was aspirated from the assay plate at a rate of 1 µL/s and 40 µL of Medium A ± test chemical applied using a CyBio FeliX automated liquid handler (Analytik Jena, Jena, Germany). At 24 h, conditioned cell culture medium was aspirated and 40 µL of Medium B ± test chemical was applied. At 48 h, cells were prepared for high-content image acquisition by fixation and nuclear staining. The total test chemical incubation period was 48 h. For fixation, a 4% paraformaldehyde (PFA) solution was achieved by adding 40 µL of 8% PFA directly to cell culture medium using a CyBio FeliX liquid handler. […] Following an additional 30 min incubation period at room temperature, staining solution was aspirated, 50 µL of DPBS was added, and plate sealed with MicroAmp Optical Adhesive Film (Applied Biosystems, Waltham, MA, USA).
Images were acquired within 12 h post-fixation using an Opera Phenix High-Content Screening System (Perkin Elmer, Waltham, MA, USA). […] Cell identification and mean biomarker fluorescent intensities were calculated using Harmony image analysis software (Perkin Elmer, Waltham, MA, USA). Cell nuclei were identified using the object classifying algorithm C of the software with border objects excluded using the “Remove Border Objects” feature. Mean cell biomarker intensity statistics were gathered from each object and exported for further analysis using a custom script in Python version 3.7.4 [61] […] For each plate, pluripotent-negative control wells were used to establish baseline intensity values and a cutoff threshold for determining SOX17 and BRA biomarker-positive cells. Endoderm differentiated positive control wells were used to establish baseline intensity values and a cutoff threshold for SOX2-positive cells. Cells with a mean intensity five times the baseline median absolute deviation (5*bmad) above the median cell intensity for plate-based control population technical replicates were considered positive. Well-based cell counts, reflected by the sum of total counted objects from all fields, were used to calculate the percent responders for each respective biomarker and evaluate cytotoxicity. Well-level results were exported for data modeling in the ToxCast Pipeline.
The ToxCast Pipeline R package (tcpl v.2.0.2) was used to normalize, fit, and qualify concentration-response screening data [63].

[5] = tested on: BRA (mesoderm marker) in RUES2-GLR cells; test: DevTox GLR-Endo assay: increase in percent BRA-positive cells (AEID 3096, Bra_up); type: cell-based, human; conditions: for HIT−CALL: tcpl plot AEID3096, COFF 0.774; for MAX_MEAN: tcpl plot AEID3096, maximum mean response; for MAX_MED: tcpl plot AEID3096, maximum median response
Description: as §1, §2

[6] = cited from earlier work; for Development Toxicant Classification: Table S2; for Classification: developmental toxicant classification (Teratogen / Non-Teratogen) of reference and training chemicals, ref DOI per chemical: 10.1093/toxsci/kft239, 10.1093/toxsci/kfaa014, 10.1177/026119290203000204, 10.1038/s41598-020-59542-x; for DT Class.: developmental toxicant classification
[7] = DevTox GLR-Endo assay: decrease in total cell count, cytotoxicity (AEID 3098, CellCount_dn); conditions: human, RUES2-GLR cells under directed endoderm differentiation
[8] = tested on: SOX17 in H9 human ESC line; conditions: SOX17 half-maximal inhibition concentration; read-out: hPST IC50; cited from earlier work
H9 human ESC line = conditions: cited from earlier work
[9] = read-out: DevTox % Max Inhibition
[10] = read-out: ga (winning model), tcpl plot AEID3094, gain parameter of winning curve fit (log concentration, µM axis), hit calls only (converted)
[11] = tcpl plot AEID3093, maximum mean response, read-out: MAX_MEAN
[12] = tcpl plot AEID3093, maximum median response, read-out: MAX_MED
[13] = read-out: maximum observed effect level class (% max inhibition)
[14] = chemicals common with quickPredict

SMILES	Emax [1, 9]	Emax ([1]; read-out: MAX_MEAN)	Emax ([1]; read-out: MAX_MED)	AC50 [1, 10]	Emax ([1]; read-out: tp (winning model))	Hit Call [1]	DevTox ACC [1]	DevTox-GLR Endo ACC [1]	HIT−CALL [1]	Emax (RUES2-GLR cells)	Cell Count ACC (RUES2-GLR cells; human, 48 h)	DevTox-GLR Endo CC (RUES2-GLR cells; human, 48 h)	Emax [2, 11]	Emax [2, 12]	HIT−CALL [2]	quickPredict TI [3]	AC50 [4]	MAX_MEAN [4]	MAX_MED [4]	Classification [6]	further results
COc1ccc2c(c1)c(CC(=O)O)c(C)n2C(=O)c1ccc(Cl)cc1 [Indomethacin]	101%	100%	101%	13.2 µM	101%	Positive	9.385 µM	9.38 µM	1	92.5%	8.702 µM	8.70 µM	0.625%	-1.03%	0	72.7 µM	12.9 µM	6.48 Percent Activity	6.65 Percent Activity	–	Emax [4]: 6.38%
Cc1cn([C@H]2C=C[C@@H](CO)O2)c(=O)[nH]c1=O [Stavudine]	11.4%	13.5%	11.4%	–	–	Negative	>200 µM	–	0	23.9%	90.2805 µM	90.28 µM	8.07%	10.6%	0	32.5 µM	–	1.54 Percent Activity	0.512 Percent Activity	Teratogen	hit call designation (in words) [1]: false negative; Emax [1, 13]: 0 to 20%; effect on cell count (in words) (RUES2-GLR cells): significant decreases in cell count; effect on cell count (in words) (RUES2-GLR cells; human, 48 h): significant cell loss that did not impact SOX17-positive populations; HIT−CALL [5]: 1; MAX_MEAN [5]: 1.06 Percent Activity; MAX_MED [5]: 1.06 Percent Activity; Development Toxicant Classification [6]: Positive; DT Class. [6, 14]: Pos
CC[C@H](C)C(=O)O[C@H]1C[C@@H](C)C=C2C=C[C@H](C)[C@H](CC[C@@H]3C[C@@H](O)CC(=O)O3)[C@H]21 [Lovastatin]	102%	102%	102%	11.2 µM	123%	Positive	0.9345 µM	0.93 µM	1	95.4%	0.7145 µM	0.71 µM	-9.76%	-10.1%	0	5.1 µM	36.3 µM	21.1 Percent Activity	14.8 Percent Activity	Teratogen	Development Toxicant Classification [6]: Positive; DT Class. [6, 14]: Pos; Emax [4]: 13.5%
CCCCC(CC)COC(=O)c1ccccc1C(=O)O (centres unmarked) [MEHP]	–	–	–	–	–	Positive	76.3285 µM	76.33 µM	1	–	–	–	–	–	0	167 µM	–	1.85 Percent Activity	1.77 Percent Activity	–	DevTox % Max Inhibition ([1]; Table S2, percent SOX17-positive cells relative to DMSO): 67.6802%; ga (winning model) ([1]; tcpl plot AEID3094, gain parameter of winning curve fit (log concentration, µM axis), hit calls only): 2.11; MAX_MEAN ([1]; tcpl plot AEID3094, maximum mean response): 65.4 Percent Activity; MAX_MED ([1]; tcpl plot AEID3094, maximum median response): 67.7 Percent Activity; tp (winning model) ([1]; tcpl plot AEID3094, top of winning curve fit (Hill or gain-loss), hit calls only): 89.3; Cell Count ACC (RUES2-GLR cells): 61.5464 µM; DevTox-GLR Endo CC (RUES2-GLR cells): 61.55 µM; Cell Count % Max Inhibition (RUES2-GLR cells; Table S2, cell count relative to DMSO): 76.1511%; MAX_MEAN ([2]; tcpl plot AEID3093, maximum mean response): 6.64 Percent Activity; MAX_MED ([2]; tcpl plot AEID3093, maximum median response): 12.4 Percent Activity; HIT−CALL [5]: 0; MAX_MEAN [5]: 1.95 Percent Activity; MAX_MED [5]: 1.69 Percent Activity
CO[C@H]1/C=C/O[C@@]2(C)Oc3c(C)c(O)c4c(O)c(c(/C=N/N5CCN(C)CC5)c(O)c4c3C2=O)NC(=O)/C(C)=C\C=C\[C@H](C)[C@H](O)[C@@H](C)[C@@H](O)[C@@H](C)[C@H](OC(C)=O)[C@@H]1C [Rifampicin]	101%	102%	101%	67.6 µM	108%	Positive	37.8542 µM	37.85 µM	1	92.4%	18.1066 µM	18.11 µM	7.3%	7.36%	0	2.46 µM	–	0.548 Percent Activity	0.542 Percent Activity	Teratogen	Development Toxicant Classification [6]: Positive; DT Class. [6, 14]: Pos
CCCCc1oc2ccccc2c1C(=O)c1cc(I)c(OCCN(CC)CC)c(I)c1 [Amiodarone]	–	–	–	17 µM	–	Positive	–	–	1	97.1%	–	–	6.18%	3.59%	0	5.1 µM	11.7 µM	2.82 Percent Activity	2.22 Percent Activity	Teratogen	DT Class. [6, 14]: Pos; Emax [4]: 1.23%
CN(C)CCOC(c1ccccc1)c1ccccc1 [Diphenhydramine]	–	–	–	61.7 µM	117%	Positive	–	–	1	78.9%	–	–	-0.267%	-1.82%	0	0.588 µM	631 µM	2.92 Percent Activity	1.57 Percent Activity	–	HIT−CALL [5]: 1; MAX_MEAN [5]: 1.61 Percent Activity; MAX_MED [5]: 1.58 Percent Activity; Emax [4]: 2.12%
Nc1ccn([C@@H]2O[C@H](CO)[C@@H](O)[C@@H]2O)c(=O)n1 [Cytarabine]	102%	102%	102%	0.557 µM	102%	Positive	0.4557 µM	0.46 µM	1	86.7%	0.05231 µM	0.05 µM	12.2%	12.7%	0	0.054 µM	0.582 µM	2.89 Percent Activity	2.91 Percent Activity	Teratogen	effect on cell count (in words) (RUES2-GLR cells): significant decreases in cell count; DT Class. [6, 14]: Pos; Emax [4]: 2.27%
[H]/N=C(/NCCCCC)N/N=C/c1c[nH]c2ccc(OC)cc12 [Tegaserod Maleate]	102%	102%	102%	5.32 µM	102%	Positive	4.472 µM	–	1	98.8%	–	–	6.89%	6.94%	0	–	–	2.78 Percent Activity	2.79 Percent Activity	Non-Teratogen	hit call designation (in words) [1]: false positive; AC50 ([1]; 48 h, read-out: DevTox-GLR Endo AC50 (µM), SOX17 half-maximal activity concentration, 48 h exposure): 5.32 µM; Emax [1, 13]: 80 to 100%; CC50 at 48 h [7]: 5.06 µM; Cell Count ACC (RUES2-GLR cells; Table S2, 48 h exposure): 4.239 µM; HIT−CALL [5]: 1; MAX_MEAN [5]: 3.57 Percent Activity; MAX_MED [5]: 2.57 Percent Activity; IC50 [8]: 4.6 µM; hPST TC50 (H9 human ESC line; cytotoxicity half-maximal concentration): 4.5 µM; hPST TC50 (H9 human ESC line; hPST cytotoxicity): 4.5 µM; Development Toxicant Classification [6]: Negative; DT Class. ([6]; chemicals common with hPST): Neg

— publication PMC9321663, “The DevTox Germ Layer Reporter Platform: An Assay Adaptation of the Human Pluripotent Stem Cell Test” (Toxics, 2022)
